# Results from BindingDB's records for doi:10.7270/Q2ZC817P (The Scripps Research Institute Molecular Screening Center, 2007).
# Biological target: Sphingosine 1-phosphate receptor 1 (Homo sapiens, UniProt P21453)
# Assay: potentiators of S1P1 agonist response, dose response, cell-based, potentiator mode, 60K MLSMR set (AID 466)
# Conditions: not given
# Sequence of Sphingosine 1-phosphate receptor 1 (P21453 whole entry): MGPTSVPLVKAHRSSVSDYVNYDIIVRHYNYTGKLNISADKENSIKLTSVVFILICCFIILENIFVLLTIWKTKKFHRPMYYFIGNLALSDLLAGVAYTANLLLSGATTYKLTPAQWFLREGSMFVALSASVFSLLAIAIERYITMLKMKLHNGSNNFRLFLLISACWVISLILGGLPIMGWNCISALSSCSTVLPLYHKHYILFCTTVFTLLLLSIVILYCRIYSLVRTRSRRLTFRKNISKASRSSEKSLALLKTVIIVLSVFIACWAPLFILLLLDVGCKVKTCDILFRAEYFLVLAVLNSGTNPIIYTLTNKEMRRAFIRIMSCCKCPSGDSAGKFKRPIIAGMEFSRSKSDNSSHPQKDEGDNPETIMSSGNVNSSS
row,EC50,Structure (SMILES)
1,6.01 µM,CC1(C)CC(=O)C(=CNc2ccc3[nH]ncc3c2)C(=O)C1 [SMR000111453]
2,0.837 µM,O=C(CSc1nnc(-c2c[nH]c3ccccc23)o1)N(Cc1ccccc1)c1ccc(F)cc1
3,2.28 µM,Cc1csc(NC(=O)C(Cc2ccccc2)n2cccc2)n1 (centres undefined) [MLS000119019]
4,1.52 µM,"CCOc1ccc(-c2nc(-c3ccccc3C)no2)cc1 [3-(o-tolyl)-5-p-phenetyl-1,2,4-oxadiazole]"
5,6.53 µM,"Fc1ccc(COc2ccc(C=Nn3cnnc3)cc2)cc1 [1-[4-[(4-fluorophenyl)methoxy]phenyl]-N-(1,2,4-triazol-4-yl)methanimine]"
6,> 95 µM,CCC(NC(=O)Nc1nnc(C(F)(F)F)s1)(C(F)(F)F)C(F)(F)F
7,7.43 µM,O=S(=O)(Nc1ccc2c(c1)OCCO2)c1ccc2oc3ccccc3c2c1 [MLS000051884]
8,4.46 µM,Cn1nc(C(C)(C)C)cc1C(=O)NCc1ccc(N2CCCC2=O)cc1 [5-tert-Butyl-2-methyl-2H-pyrazole-3-carboxylic acid 4-(2-oxo-pyrrolidin-1-yl)-benzylamide]
9,5.39 µM,"CCCCNc1cc(C)nc(NCc2ccccc2)n1 [2-N-benzyl-4-N-butyl-6-methylpyrimidine-2,4-diamine]"
10,2.06 µM,Cn1c(SCC(=O)Nc2ccc(N3CCOCC3)c(Cl)c2)nnc1-c1ccccc1 [MLS000089171]
11,4.14 µM,CCCC(=O)Nc1ccc2oc(-c3ccc(OC)c(Br)c3)nc2c1 [MLS000042482]
12,7.02 µM,"CCN(C1CCCCC1)S(=O)(=O)c1ccc(S(=O)(=O)NCc2ccncc2)cc1 [4-N-cyclohexyl-4-N-ethyl-1-N-(pyridin-4-ylmethyl)benzene-1,4-disulfonamide]"
13,3.83 µM,"COc1ccc(C(c2c(O)ccc3ccccc23)N2CCOCC2)c(OC)c1 (centres undefined) [1-[(2,4-dimethoxyphenyl)-(4-morpholinyl)methyl]-2-naphthalenol]"
14,2.14 µM,"COc1ccccc1Oc1ccc2c(c1)C(=O)N(c1cccc(O)c1)C2=O [2-(3-hydroxyphenyl)-5-(2-methoxyphenoxy)isoindole-1,3-dione]"
15,8.31 µM,"Cc1ccsc1C(=O)OCC(=O)c1cc(C)n(CC2CCCO2)c1C (centres undefined) [3-methyl-2-thiophenecarboxylic acid [2-[2,5-dimethyl-1-(2-oxolanylmethyl)-3-pyrrolyl]-2-oxoethyl] ester]"
16,2.33 µM,"CCOc1ccc(-c2nnc(-c3cccnc3)o2)cc1OCC [2-(3,4-diethoxyphenyl)-5-(3-pyridinyl)-1,3,4-oxadiazole]"
17,0.108 µM,"Clc1ccc(OCCN2CCN(c3ncnc4sccc34)CC2)cc1 [4-[4-[2-(4-chloranylphenoxy)ethyl]piperazin-1-yl]thieno[2,3-d]pyrimidine]"
18,4.83 µM,COCCN(C(=O)c1ccccc1)c1nnc(-c2cccnc2)s1 [MLS000032523]
19,6.42 µM,"O=C(Nc1cccc(C(F)(F)F)c1)N1CCC(c2nc(-c3ccc(F)cc3)no2)CC1 [4-[3-(4-Fluoro-phenyl)-[1,2,4]oxadiazol-5-yl]-piperidine-1-carboxylic acid (3-trifluoromethyl-phenyl)-amide]"
20,0.87 µM,Cc1cc(C(=O)CSc2nnc(-c3cccnc3)n2-c2ccccc2F)c(C)n1C [SMR000064090]
21,7.98 µM,"Cc1ccc(-n2c(C)cc(C(=O)COC(=O)c3c(C)noc3C)c2C)cc1 [3,5-dimethyl-4-isoxazolecarboxylic acid [2-[2,5-dimethyl-1-(4-methylphenyl)-3-pyrrolyl]-2-oxoethyl] ester]"
22,4.07 µM,"O=C(c1cc(-c2ccc(O)cc2)on1)N1CCc2ccccc2C1 [4-[3-(3,4-dihydro-1H-isoquinolin-2-ylcarbonyl)-2H-1,2-oxazol-5-ylidene]cyclohexa-2,5-dien-1-one]"
23,13.7 µM,"CCCCc1ccc(C2C(C#N)C(=N)SC(=N)C2C#N)s1 (centres undefined) [2,6-bis(azanyl)-4-(5-butylthiophen-2-yl)-4H-thiopyran-3,5-dicarbonitrile]"
24,2.79 µM,"C=C(C)COc1ccc(-c2nc(N)nc(C)c2Oc2ccccc2OC)c(O)c1 [(6E)-6-[2-amino-5-(2-methoxyphenoxy)-6-methyl-1H-pyrimidin-4-ylidene]-3-(2-methylallyloxy)cyclohexa-2,4-dien-1-one]"
25,> 95 µM,Cc1cccc(-n2ncc3c(N(C)C4CCCCC4)ncnc32)c1 [MLS000100814]
26,5.06 µM,CCCCOC(=O)c1[nH]c2c(c1C)C(=O)CC(c1cc(OC)c(OC)c(OC)c1)C2 (centres undefined)
27,7.5 µM,O=C(Nc1nccs1)c1ccc(S(=O)(=O)NCC2CCCCC2)cc1 [4-(Cyclohexylmethyl-sulfamoyl)-N-thiazol-2-yl-benzamide]
28,2.96 µM,CCCN(C(=O)c1cccs1)c1nnc(-c2ccncc2)s1 [MLS000074637]
29,4.71 µM,"CC(C)(C)C1CCC2(CC1)C(C#N)=C(SCC(=O)Nc1ccccc1)NC(=O)C2C#N (centres undefined) [2-[(9-tert-butyl-1,5-dicyano-2-oxidanylidene-3-azaspiro[5.5]undec-4-en-4-yl)sulfanyl]-N-phenyl-ethanamide]"
30,> 30 µM,COc1ccc(S(=O)(=O)Cc2ccc(C(=O)N3CCN(c4cccc(C)c4C)CC3)o2)cc1 [MLS000120226]

# Same assay, conditions: inactive by the depositor's call
row,EC50,Structure (SMILES)
1,14.4 µM,"CCNc1nc2c(c(=O)n(C)c(=O)n2C)n1Cc1ccc(Cl)cc1 [7-(4-chlorobenzyl)-8-(ethylamino)-1,3-dimethyl-xanthine]"
2,10.3 µM,CCCn1c(NC(=O)c2cccc(S(=O)(=O)N3CCCC3)c2)nc2ccccc21 [MLS000057540]
3,21.4 µM,"Cc1cc(C(=O)CN2C(=O)c3ccccc3C2=O)c(C)n1Cc1cccs1 [2-[2-[2,5-dimethyl-1-(2-thenyl)pyrrol-3-yl]-2-keto-ethyl]isoindoline-1,3-quinone]"
4,25.8 µM,"CCOc1ccccc1COC(=O)c1cccc(-n2cnnn2)c1 [(2-ethoxyphenyl)methyl 3-(1,2,3,4-tetrazol-1-yl)benzoate]"
5,15.2 µM,Cc1ccccc1OCC(=O)Nc1ccc(N2CCN(C(=O)C(C)C)CC2)c(Cl)c1 [MLS000034491]
6,19.9 µM,"O=C(Nc1ccc(Oc2ccccc2)cc1)c1cnc2n(c1=O)CCS2 [5-keto-N-(4-phenoxyphenyl)-2,3-dihydrothiazolo[3,2-a]pyrimidine-6-carboxamide]"
7,10.1 µM,Cc1ccccc1CS(=O)(=O)c1nnc([C@H](CC(C)C)NC(=O)OC(C)(C)C)o1 [SMR000044673]
8,14.8 µM,"Cc1ccc(C)c(-n2nnnc2Sc2nnnn2-c2ccccc2)c1 [1-(2,5-dimethylphenyl)-5-(1-phenyltetrazol-5-yl)sulfanyltetrazole]"
9,20.9 µM,"CC(=O)N1C=CN(C(C)=O)C(c2cn(C)c3ccccc23)C1c1cn(C)c2ccccc12 (centres undefined) [1-[4-acetyl-2,3-bis(1-methyl-3-indolyl)-2,3-dihydropyrazin-1-yl]ethanone]"
10,16.2 µM,CC(C)[C@H](NC(=O)OC(C)(C)C)c1nnc(SCC(=O)Nc2ccc(Br)cc2)o1 [MLS000040800]
11,48.2 µM,COc1ccc(OCCCSc2ncccn2)cc1 [2-[3-(4-methoxyphenoxy)propylsulfanyl]pyrimidine]
12,18.2 µM,"CCOc1cc(-c2noc(-c3cccnc3)n2)ccc1OC [3-(3-ethoxy-4-methoxy-phenyl)-5-(3-pyridyl)-1,2,4-oxadiazole]"
13,15.5 µM,O=C(c1ccco1)N1CCN(c2ncnc3c2[nH]c2ccc(Br)cc23)CC1 [MLS000078404]
14,24.2 µM,COc1ccc(-n2c(C)c(C(C)=O)c3cc(O)ccc32)cc1 [1-[1-(4-methoxyphenyl)-2-methyl-5-oxidanyl-indol-3-yl]ethanone]
